Laboratory results published in US8871510B2, “Methods for generating T lymphocytes from hematopoietic stem cells” (University of Utah Research Foundation, priority 2009, dated 2014).

Assays:
[1] = tested on: mouse lymphoid progenitor cells (c-kit+Sca-1+ lineage-neg CD90.1-neg); experiment: Ascorbate versus other anti-oxidants in OP9-DL1 lymphoid progenitor culture (30 days); type: cell-based; settings: added after 14 days, culture through 30 days; anti-oxidants data not shown
Procedure: To establish the mechanism by which ascorbic acid promotes T cell development, we initially tested whether the anti-oxidant activity of ascorbic acid plays a key role. To test this, mouse lymphoid progenitor cells were isolated from adult bone marrow tissue by flow sorting, based on the phenotype c-kit+Sca-1+ lineage-neg CD90.1-neg, and 1000-2000 cells were plated per ml in the presence of the cytokines IL7 and Flt3L and the stromal cell line OP9-DL1. Cultures were harvested by forceful pipetting every 3-4 days and reseeded on a fresh monolayer of OP9-DL1 cells. After 14 days in culture, the cell number had expanded approximately 1000-fold (data not shown). At this point, the culture was split into two conditions, with one set of cultures supplemented with 1-ascorbic acid-2-phosphate (250 μg/ml), and the passages were continued through 30 days. […] Numbers indicate the percentage of cells with co-expression of CD4 and CD8 or CD3 and TCR.

[2] = tested on: mouse bone marrow-derived progenitor cells; experiment: Growth kinetics of bone marrow-derived progenitor cells in OP9-DL1 cultures (cytokines, ΔQ, NH4Cl); type: cell-based
Text: The combination of Flt3L and IL-7 promotes 10^5-fold expansion over 26 days, while addition of stem cell factor (SCF) enhances this by 5-fold. […] The growth inhibition is mainly due to the failure of selection by TCR signaling, as shown by the failure of CD4^+CD8^+ double positive (DP) cells to survive and expand.
In this Example, several important variables that are important to the successful development of T lymphocytes from bone marrow-derived cells were identified. […] Our experiments defining optimal culture conditions tell us that in order to promote T cell development from bone marrow-derived progenitor cells, a two-stage culture system is required. In the first stage, bone marrow cells are expanded under the influence of lymphoid-specifying cytokines (IL-7 and Flt3 ligand) and notch signaling delivered by OP9-DL1 cells. The expansion of the resulting pro-T cells is robust, reaching a total expansion of 10^5-fold or more (FIG. 1).
All cultures were initiated by seeding 2×10^3 FACS-sorted bone marrow progenitor cells, selected based on the surface phenotype c-kit+Sca-1+Thy-1.1-neg lineage-neg, onto a feeder layer of OP9-DL1 stromal cells. All cultures contained 1 ng/ml IL-7 and 5 ng/ml Flt3L and otherwise identical additives (10% fetal calf serum, stabilized alanyl-glutamine, antibiotics, 2-ME, supplemental amino acids, and supplemental vitamins).

[3] = tested on: Lymphocyte progenitor cells (KLS, Thy1.1-); experiment: TLR-L and ascorbic acid effects on NK and T cell development from lymphoid progenitors co-cultured with OP9-DL1; type: cell-based, mouse; settings: SCF contaminated with LPS through production in E. coli
Procedure: We therefore designed experiments to evaluate the differential effects of TLR-L and ascorbic acid on NK and T cell development from lymphoid progenitors co-cultured with OP9-DL1 stromal cells. Lymphocyte progenitor cells (KLS, Thy1.1-) were sorted from adult mouse bone marrow and 1000-2000 progenitor cells were seeded per well in a 24 well plate coated with OP9-DL1 stroma. Cultures were supplemented with IL-7 (5 ng/ml), Flt3 ligand (5 ng/ml), and SCF (100 ng/ml) plus one of 5 different TLR-L (TLR1/2, TLR3, TLR4, TLR5, and a crude LPS preparation that likely contains a number of TLR-L), with or without addition of a stabilized form of ascorbic acid, phosphoascorbate at a final concentration of 250 μg/ml. Cells were passaged, counted and re-seeded with fresh media and supplements twice a week over a 30-day period. Immunophenotype and viability were evaluated by flow cytometry. Markers for T cell development included CD44, CD25, CD3, CD4, CD8, T cell receptor […] and T cell receptor γδ chains. NK cells were evaluated for the presence of NKp46, NK1.1, and DX5.

| Compound | Differentiating effect (CD4/CD8 and CD3/TCR co-expression) [1] | also measured |
| --- | --- | --- |
| N[C@@H](CS)C(=O)O [1-cysteine] | not reproduced | – |
| CC(=O)N[C@@H](CS)C(=O)O [N-acetyl-cysteine] | not reproduced | – |
| Cl.N [NH4Cl, reference compound] | – | Expansion of the T lineage ([2]; day 15 of culture, FIG. 1B): cease to expand |
| O=C(O)CCCCC1CCSS1 (stereo not drawn) [alpha-lipoic acid] | not reproduced | – |
| SCF: stem cell factor; in b105 contaminated with LPS through its production in E. coli | – | Enhancement of expansion on addition to Flt3L and IL-7 ([2]; over 26 days, FIG. 1A): 5 fold; Promotion of NK cell development in the OP9-DL1 culture system [3]: particularly effective |
